In patent publication US11160797B2, “Pyridinone derivatives and their use as selective ALK-2 inhibitors” (NOVARTIS AG, priority 2017, dated 2021) one finds IC50 data, which are given here for 19 compounds.

Read-outs that look alike come from different tables or passages of the source. Bounds are passed on as bounds.

In general, IC50 refers to the concentration that gives 50% inhibition.

Assay [1] deals with ALK2 FOP mutant (aa172-499 R206H) (Homo sapiens (Human), UniProt Q04771, R206H). The experiment in a line: Caliper biochemical peptide phosphorylation assay, ALK2 FOP.
ALK2 FOP mutant (aa172-499 R206H), sequence (Q04771 172-499 R206H): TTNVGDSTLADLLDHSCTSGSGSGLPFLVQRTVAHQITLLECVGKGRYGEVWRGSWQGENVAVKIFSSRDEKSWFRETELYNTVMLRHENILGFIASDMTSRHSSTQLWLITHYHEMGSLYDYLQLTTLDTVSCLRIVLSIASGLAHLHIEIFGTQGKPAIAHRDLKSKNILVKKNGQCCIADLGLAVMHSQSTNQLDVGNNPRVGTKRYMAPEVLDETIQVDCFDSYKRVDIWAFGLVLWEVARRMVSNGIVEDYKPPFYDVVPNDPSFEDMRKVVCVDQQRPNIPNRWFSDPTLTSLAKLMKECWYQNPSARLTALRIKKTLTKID
In assay [2] the target is T1, wild-type ALK2 (aa172-499) (Homo sapiens (Human), UniProt Q04771). The experiment in a line: Caliper biochemical peptide phosphorylation assay, ALK2.
T1 sequence (Q04771 172-499): as the sequence (Q04771 172-499 R206H) above, with H35R counted along it
Assay [3] deals with ALK5 (aa162-503) (Homo sapiens (Human), UniProt P36897). The experiment in a line: Caliper biochemical peptide phosphorylation assay, ALK5. Particulars: 15 uM ATP. The source says:
For all biochemical assays, human recombinant proteins were expressed in and purified from baculo virus transfected insect cells. The constructs comprised the GS-domain and kinase domain of wild-type ALK2 (aa172-499), ALK2 FOP mutant (aa172-499 R206H), ALK3 (aa198-525), ALK5 (aa162-503) and ALK6 (aa168-495).
A kinase selectivity panel which measures substrate peptide phosphorylation was set-up for wild-type ALK2 (aa172-499), ALK2 FOP mutant (aa172-499 R206H), ALK1 (aa166-493), ALK5 (aa162-503) and ALK6 (aa168-495). The technology used for the described assay is based on the separation and quantification of substrate and product in an electrical field. In the course of the kinase reaction the peptide substrate is phosphorylated by a kinase. […] Due to this difference in charge the phosphorylated und unphosphorylated peptides migrate with different velocities in an electrical field.
In the applied method, this separation takes place inside a chip that contains a complex capillary system for simultaneous analysis of 12 samples (“LabChip EZ Reader 12-sipper chip”, Caliper Technologies Corp., Mountain View, USA). In order to allow the detection and quantification of the peptides in the capillary system, the peptides carry a fluorescent label (fluorescein). With this label the peptides can be quantified by fluorescence intensity through the instruments laser and detection system (LC3000, Caliper Life Sciences).
The assays were performed in 384-well, low volume microtiter assay plates in a final reaction volume of 9 ul. Dose-response curves were generated by incubating 10 nM of each kinase together with 2 uM of the fluorescently labeled substrate peptide 5-Fluo-Ahx-[…]-T-[…]-amid (10 mM stock solution in DMSO) in 50 mM Hepes pH 7.5, 0.02% Tween 20, 0.02% BSA, 1 mM DTT, 10 uM Na3VO4, 10 mM ß-Glycerolphosphate, 1 mM MgCl2, 12 mM MnCl2 (ALK1 and ALK6 7 mM) and 15 uM ATP for 60 min at 30° C. in the presence or absence of compound diluted in DMSO.
Kinase reactions were terminated by adding 15 ul STOP buffer (100 mM HEPES pH 7.5, 5% DMSO, 0.1% Caliper coating reagent, 10 mM EDTA, and 0.015% Brij35.
Plates with terminated kinase reactions were transferred to the Caliper LC3000 workstation (Caliper Technologies Corp., Mountain View, USA) for reading. The relative amount of phosphorylated peptide r, was calculated using the heights of the substrate peak, s, and the product peak, p:r=p/(p+s).
IC50 values for a given antagonist correspond to the compound concentration needed to inhibit half of the maximum signal of the kinase reaction.

The target in assay [4] is T1, wild-type ALK2 (aa172-499). The assay is described as follows: ADPGlo biochemical autophosphorylation assay, ALK2. To be noted: 15 uM ATP. For orientation: In ADP-Glo the light output rises with the ADP produced.
The test system of assay [5] is HuH7 cells, BMP response element (BRE) luciferase reporter, BMP6 stimulated. The assay is described as follows: BMP signaling reporter gene assay. It is filed as cell-based. Particulars: Homo sapiens, Huh-7; BMP6 100 ng/ml; read-out: MSD HuH7 cell BMP reporter IC50. A general note: A reporter such as luciferase makes a cellular process visible.
In assay [6] the target is ALK1 (aa166-493) (Homo sapiens (Human), UniProt P37023). The assay is described as follows: Caliper biochemical peptide phosphorylation assay, ALK1. To be noted: 15 uM ATP.
ALK1 (aa166-493), sequence (P37023 166-493): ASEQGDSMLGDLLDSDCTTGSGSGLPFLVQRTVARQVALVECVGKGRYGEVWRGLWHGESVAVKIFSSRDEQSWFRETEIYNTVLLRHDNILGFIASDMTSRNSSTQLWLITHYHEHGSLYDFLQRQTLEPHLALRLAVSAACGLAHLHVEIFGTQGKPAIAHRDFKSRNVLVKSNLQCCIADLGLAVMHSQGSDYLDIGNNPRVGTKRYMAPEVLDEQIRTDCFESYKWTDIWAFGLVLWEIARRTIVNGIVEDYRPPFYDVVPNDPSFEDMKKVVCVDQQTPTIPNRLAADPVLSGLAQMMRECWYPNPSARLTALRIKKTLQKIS
Where [7] appears, read: Caliper peptide phosphorylation, R206H, 15 uM ATP, read-out: ALK2 FOP EPK IC50.
Setting [8] is: Caliper peptide phosphorylation, 15 uM ATP, read-out: ALK2 IC50.

ALK5 (aa162-503), sequence (P36897 162-503): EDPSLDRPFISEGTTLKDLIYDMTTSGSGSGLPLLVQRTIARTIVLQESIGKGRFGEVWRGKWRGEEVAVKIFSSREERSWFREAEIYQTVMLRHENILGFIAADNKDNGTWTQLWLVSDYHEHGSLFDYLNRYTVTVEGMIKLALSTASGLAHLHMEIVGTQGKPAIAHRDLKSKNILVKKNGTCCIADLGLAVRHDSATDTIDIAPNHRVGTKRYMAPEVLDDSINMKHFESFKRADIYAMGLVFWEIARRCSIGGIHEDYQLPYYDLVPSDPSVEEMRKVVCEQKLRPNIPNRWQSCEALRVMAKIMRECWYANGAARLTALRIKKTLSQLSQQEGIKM

`CC(C)n1cc(-c2cncc(-c3cnc4c(c3)C(C)(C)C(=O)N4C)c2)ccc1=O` [5-(1′-isopropyl-6′-oxo-1′,6′-dihydro-[3,3′-bipyridin]-5-yl)-1,3,3-trimethyl-1H-pyrrolo[2,3-b]pyridin-2(3H)-one]: the IC50 in assay [1] (read-out: IC50 in the ALK2-FOP assay) and in assay [2] (read-out: IC50 in the ALK2 assay) was > 1000 nM throughout.
In the case of `Cc1cc(-c2cncc(-c3ccc4c(c3)CC(=O)N4C)c2)cn(C(C)C)c1=O` [Example 3, 5-(5-(1-Isopropyl-5-methyl-6-oxo-1,6-dihydropyridin-3-yl)pyridin-3-yl)-1-methylindolin-2-one], the IC50 in assay [1] (setting [7]) is 70 nM; in assay [2] (setting [8]), 90 nM; in assay [3], 660 nM; in assay [4], 97 nM; in assay [5], 50 nM.
In the case of `CCC(CC)n1cc(-c2cncc(-c3ccc4c(c3)CC(=O)N4C)c2)ccc1=O` [Example 4, 1-methyl-5-(6′-oxo-1′-(pentan-3-yl)-1′,6′-dihydro-[3,3′-bipyridin]-5-yl)indolin-2-one], the IC50 is 650 nM in assay [1] (setting [7]), 600 nM in assay [2] (setting [8]), > 10000 nM in assay [3] and 1300 nM in assay [4].
Turning to `CCc1cc(-c2cncc(-c3ccc4c(c3)CC(=O)N4C)c2)cn(C(C)C)c1=O` [Example 5, 5-(5′-Ethyl-1′-isopropyl-6′-oxo-1′,6′-dihydro-[3,3′-bipyridin]-5-yl)-1-methylindolin-2-one], the half-inhibitory concentration (IC50) in assay [6] turned out to be 900 nM; in assay [1] (setting [7]) it was 130 nM; in assay [2] (setting [8]), 160 nM; in assay [3] it was 720 nM; in assay [4] it was 140 nM; in assay [5], 60 nM.
In the case of `CCC(C)n1cc(-c2cncc(-c3ccc4c(c3)CC(=O)N4C)c2)ccc1=O` (centres unmarked) [Example 7, 5-(1′-(sec-butyl)-6′-oxo-1′,6′-dihydro-[3,3′-bipyridin]-5-yl)-1-methylindolin-2-one], the concentration for half-maximal inhibition (IC50) stood at 1200 nM in assay [6]; 170 nM in assay [1] (setting [7]); 190 nM in assay [2] (setting [8]); 4400 nM in assay [3]; 230 nM in assay [4].
As to `CCn1cc(-c2cncc(-c3ccc4c(c3)CC(=O)N4C)c2)ccc1=O` [Example 9, 5-(1′-ethyl-6′-oxo-1′,6′-dihydro-[3,3′-bipyridin]-5-yl)-1-methylindolin-2-one], the IC50 in assay [1] (setting [7]) is 400 nM; in assay [2] (setting [8]), 460 nM; in assay [3], > 10000 nM; in assay [4], 490 nM; in assay [5], 540 nM.
As to `CN1C(=O)Cc2cc(-c3cncc(-c4ccc(=O)n(C5CC5)c4)c3)ccc21` [Example 10, 5-(1′-cyclopropyl-6′-oxo-1′,6′-dihydro-[3,3′-bipyridin]-5-yl)-1-methylindolin-2-one], the IC50 was 2900 nM in assay [6]; 390 nM in assay [1] (setting [7]); 410 nM in assay [2] (setting [8]); > 10000 nM in assay [3]; 710 nM in assay [4]; 730 nM in assay [5].
`CC(C)Cn1cc(-c2cncc(-c3ccc4c(c3)CC(=O)N4C)c2)ccc1=O` [Example 14, 5-(1′-isobutyl-6′-oxo-1′,6′-dihydro-[3,3′-bipyridin]-5-yl)-1-methylindolin-2-one]: the IC50 was determined as 4600 nM in assay [6]; 510 nM in assay [1] (setting [7]); 480 nM in assay [2] (setting [8]); 9100 nM in assay [3]; 740 nM in assay [4]; 680 nM in assay [5].
For `CCN1C(=O)Cc2cc(-c3cncc(-c4ccc(=O)n(C(C)C)c4)c3)ccc21` [Example 20, 1-Ethyl-5-(1′-isopropyl-6′-oxo-1′,6′-dihydro-[3,3′-bipyridin]-5-yl)indolin-2-one], the IC50 in assay [1] (setting [7]) was 90 nM; in assay [2] (setting [8]), 90 nM; in assay [3] it was 2500 nM; in assay [4] it was 110 nM; in assay [5], 140 nM.
In the case of `CC(C)n1cc(-c2cncc(-c3ccc4c(c3)N(C)C(=O)C4)c2)ccc1=O` [Example 26, 6-(1′-Isopropyl-6′-oxo-1′,6′-dihydro-[3,3′-bipyridin]-5-yl)-1-methylindolin-2-one], the IC50 is 590 nM in assay [1] (setting [7]), 470 nM in assay [2] (setting [8]), > 10000 nM in assay [3] and 710 nM in assay [4].
As for `COCCN1C(=O)Cc2cc(-c3cncc(-c4ccc(=O)n(C(C)C)c4)c3)cnc21` [Example 27, 5-(1′-Isopropyl-6′-oxo-1′,6′-dihydro-[3,3′-bipyridin]-5-yl)-1-(2-methoxyethyl)-1H-pyrrolo[2,3-b]pyridin-2(3H)-one], the IC50 in assay [6] was > 10000 nM; in assay [1] (setting [7]) it was 1200 nM; in assay [2] (setting [8]), 880 nM; in assay [3], > 10000 nM; in assay [4], 1700 nM.
Consider `CC(C)n1cc(-c2cncc(-c3ccc4c(c3)CCC(=O)N4C)c2)ccc1=O` [Example 28, 6-(1′-Isopropyl-6′-oxo-1′,6′-dihydro-[3,3′-bipyridin]-5-yl)-1-methyl-3,4-dihydroquinolin-2(1H)-one], for which the IC50 in assay [1] (setting [7]) was 20 nM; in assay [2] (setting [8]), 30 nM; in assay [3] it was 580 nM; in assay [4], 31 nM.
For `COCCN1C(=O)Cc2cc(-c3cncc(-c4ccc(=O)n(C(C)C)c4)c3)ccc21` [Example 29, 5-(1′-Isopropyl-6′-oxo-1′,6′-dihydro-[3,3′-bipyridin]-5-yl)-1-(2-methoxyethyl)indolin-2-one], the 50% inhibitory concentration (IC50) was 1600 nM in assay [6]; 150 nM in assay [1] (setting [7]); 130 nM in assay [2] (setting [8]); 6800 nM in assay [3]; 140 nM in assay [4].
Regarding `COCCCN1C(=O)Cc2cc(-c3cncc(-c4ccc(=O)n(C(C)C)c4)c3)ccc21` [Example 30, 5-(1′-isopropyl-6′-oxo-1′,6′-dihydro-[3,3′-bipyridin]-5-yl)-1-(3-methoxypropyl)indolin-2-one], the IC50 in assay [6] came out at 1500 nM; in assay [3] it was 6000 nM.
With `CC(C)n1cc(-c2cncc(-c3cc4c(cc3F)N(C)C(=O)C4)c2)ccc1=O` [Example 31], the IC50 was found to be 770 nM in assay [6]; 90 nM in assay [1] (setting [7]); 100 nM in assay [2] (setting [8]); 5300 nM in assay [3]; 120 nM in assay [4]; 130 nM in assay [5].
Turning to `CC(C)n1cc(-c2cncc(-c3ccc4c(c3)NC(=O)C4(C)C)c2)ccc1=O` [Example 32, 6-(1′-isopropyl-6′-oxo-1′,6′-dihydro-[3,3′-bipyridin]-5-yl)-3,3-dimethylindolin-2-one], the values for the IC50 in assay [6] and in assay [3] were 280 nM and 690 nM, respectively.
On to `CC1C(=O)Nc2cc(-c3cncc(-c4ccc(=O)n(C(C)C)c4)c3)ccc21` (centres unmarked) [Example 33, 6-(1′-isopropyl-6′-oxo-1′,6′-dihydro-[3,3′-bipyridin]-5-yl)-3-methylindolin-2-one], for which the IC50 is 760 nM in assay [6]; 150 nM in assay [1] (setting [7]); 170 nM in assay [2] (setting [8]); 2700 nM in assay [3]; 180 nM in assay [4]; 330 nM in assay [5].
As to `CC(C)n1cc(-c2cncc(-c3ccc4c(c3)CC(=O)N4)c2)ccc1=O` [Example 34, 5-(5-(1-Isopropyl-6-oxo-1,6-dihydropyridin-3-yl)pyridin-3-yl)indolin-2-one], the IC50 in assay [6] came to 1100 nM; in assay [1] (setting [7]) it was 170 nM; in assay [2] (setting [8]) it was 180 nM; in assay [3], 3400 nM; in assay [4], 300 nM; in assay [5], 190 nM.
With `CC(C)n1cc(-c2cncc(-c3ccc4c(c3)CC(=O)N4C)c2F)ccc1=O` [Example 52, 5-(4-fluoro-1′-isopropyl-6′-oxo-1′,6′-dihydro-[3,3′-bipyridin]-5-yl)-1-methylindolin-2-one], the 50% inhibitory concentration (IC50) in assay [6] was 3600 nM; in assay [1] (setting [7]) it was 380 nM; in assay [2] (setting [8]), 380 nM; in assay [3] it was > 10000 nM; in assay [4], 690 nM.
